Test results taken from US11331369B2, “Endoparasitic depsipeptides” (Zoetis Services LLC, priority 2017, dated 2022).
Where two headings read alike, the source gives them in different places.

Legend:
[1] = test system: microfilariae of Dirofilaria immitis; assay: Dirofilaria immitis, Microfilaria (DiMF) In vitro Assay; assay type: cell-based; settings: 72 h, read-out: DiMF Minimum Effective Dose (MED), approximately 72 hours incubation, microfilariae assessed for survival or paralysis
[2] = Canine pharmacokinetic (PK) study, single IV or oral dose; settings: dog; for Vd / clearance / half-life / Cmax: in vivo; for Vd / clearance / half-life: iv, 0.2 mg/kg; for Cmax: po, 1 mg/kg; for F: oral 1 mg/kg
[3] = test system: circulating microfilariae (Dirofilaria immitis); assay: Heartworm Positive Dog Studies (effects on circulating microfilariae, clinical observations); settings: for Mean MF/mL, Day 0 Pre-dose / Mean MF/mL, Day 0 Post-dose, 2 hours / Mean MF/mL, Day 1 / Mean MF/mL, Day 7 / Mean MF/mL, Day 14 / Mean MF/mL, Day 21: blood, 3 dogs/treatment; for Mean MF/mL, Day 0 Pre-dose: baseline before oral dose; for Mean MF/mL, Day 0 Post-dose, 2 hours / Mean MF/mL, Day 1 / Mean MF/mL, Day 7 / Mean MF/mL, Day 14 / Mean MF/mL, Day 21: oral dose (emodepside and 1b-14 1 mg/kg, 1b-25 up to 3 mg/kg); for Mean MF/mL, Day 0 Post-dose, 2 hours / % Reduction of circulating microfilariae, Day 0 Post-dose, 2 hours: 2 hours post-dose; for % Reduction of circulating microfilariae, Day 0 Post-dose, 2 hours / % Reduction of circulating microfilariae, Day 1 / % Reduction of circulating microfilariae, Day 7 / % Reduction of circulating microfilariae, Day 14 / % Reduction of circulating microfilariae, Day 21: vs pre-dose (Day 0) counts, oral dose
[4] = test system: 4th stage larvae (L4) of Dirofilaria immitis; assay: Dirofilaria immitis, L4 Stage (DiL4) In Vitro Assay; assay type: cell-based
[5] = test system: third stage larvae of Haemonchus contortus; assay: Haemonchus contortus L3 (HcL3) Assay; assay type: cell-based; settings: 96 h, read-out: HcL3 Minimum Effective Dose (MED)
[6] = test system: circulating microfilariae (Dirofilaria immitis); settings: dog, in vivo, po, 1 mg/kg

| Structure (SMILES) | minimal effective concentration [1] [µM] | Vd [2] [L/kg] | clearance [2] [mL/min/kg] | half-life [2] [h] | Cmax [2] [ng/mL] | F [2] [%] | Mean MF/mL, Day 0 Pre-dose ([3]; heartworm positive dogs) | Mean MF/mL, Day 0 Post-dose, 2 hours ([3]; heartworm positive dogs) | Mean MF/mL, Day 1 ([3]; heartworm positive dogs) | Mean MF/mL, Day 7 ([3]; heartworm positive dogs) | Mean MF/mL, Day 14 ([3]; heartworm positive dogs) | Mean MF/mL, Day 21 ([3]; heartworm positive dogs) | % Reduction of circulating microfilariae, Day 0 Post-dose, 2 hours [3] [%] | % Reduction of circulating microfilariae, Day 1 [3] [%] | % Reduction of circulating microfilariae, Day 7 [3] [%] | % Reduction of circulating microfilariae, Day 14 [3] [%] | % Reduction of circulating microfilariae, Day 21 [3] [%] | other results |
| --- | --- | --- | --- | --- | --- | --- | --- | --- | --- | --- | --- | --- | --- | --- | --- | --- | --- | --- |
| CC(C)C[C@H]1C(=O)O[C@H](Cc2ccc(Cn3nc(C4CC4)cc3C3CC3)cc2)C(=O)N(C)[C@@H](CC(C)C)C(=O)O[C@H](C)C(=O)N(C)[C@@H](CC(C)C)C(=O)O[C@H](Cc2ccc(Cn3nc(C4CC4)cc3C3CC3)cc2)C(=O)N(C)[C@@H](CC(C)C)C(=O)O[C@H](C)C(=O)N1C [Example 1b-14, (3S,6R,9S,12R,15S,18R,21S,24R)-6,18-bis({4-[(3,5-dicyclopropyl-1H-pyrazol-1-yl)methyl]phenyl}methyl)-4,10,12,16,22,24-hexamethyl-3,9,15,21-tetrakis(2-methylpropyl)-1,7,13,19-tetraoxa-4,10,16,22-tetraazacyclotetracosan-2,5,8,11,14,17,20,23-octaone] | 0.3 | 2.7 | 0.9 | 138 | 111 | 10 | 15,000 MF/mL | 20,000 MF/mL | 14,000 MF/mL | 15,000 MF/mL | 33,000 MF/mL | 28,000 MF/mL | −33 | 7 | 0 | −120 | −87 | adverse effects / clinical observations ([3]; heartworm positive dogs, 1 mg/kg (po)): no adverse clinical observations noted; average MF counts on day 21 ([3]; heartworm positive dogs, 1 mg/kg (po), 15,000 MF/mL of blood pre-dose): 28,000 MF/mL of blood; effects on circulating MF counts ([3]; heartworm positive dogs, 1 mg/kg (po), throughout the dog study): no significant effects on circulating MF counts |
| CC(C)C[C@H]1C(=O)O[C@H](Cc2ccc(Cn3cc(Br)cn3)cc2)C(=O)N(C)[C@@H](CC(C)C)C(=O)O[C@H](C)C(=O)N(C)[C@@H](CC(C)C)C(=O)O[C@H](Cc2ccc(Cn3cc(Br)cn3)cc2)C(=O)N(C)[C@@H](CC(C)C)C(=O)O[C@H](C)C(=O)N1C [Example 1b-25, (3S,6R,9S,12R,15S,18R,21S,24R)-6,18-bis[[4-[(4-bromopyrazol-1-yl)methyl]phenyl]methyl]-3,9,15,21-tetraisobutyl-4,10,12,16,22,24-hexamethyl-1,7,13,19-tetraoxa-4,10,16,22-tetrazacyclotetracosane-2,5,8,11,14,17,20,23-octaone] | – | 3 | 2 | 110 | 152 | 12 | 32,000 MF/mL | 34,000 MF/mL | 26,000 MF/mL | 27,000 MF/mL | 40,000 MF/mL | 46,000 MF/mL | −6 | 19 | 16 | −25 | −44 | selectivity ratio (DiMF/DiL4) ([4]; ratio of DiMF MED to DiL4 MED): about 8.3; minimal effective concentration [5]: 10 to 100 µM; adverse effects / clinical observations ([3]; heartworm positive dogs, dosed up to 3 mg/kg (po)): no adverse effects observed; effects on circulating MF counts ([3]; heartworm positive dogs, dosed up to 3 mg/kg (po), out to day 21 post-dose): no significant effects on circulating MF counts |
| CC(C)C[C@H]1C(=O)O[C@H](Cc2ccc(N3CCOCC3)cc2)C(=O)N(C)[C@@H](CC(C)C)C(=O)O[C@H](C)C(=O)N(C)[C@@H](CC(C)C)C(=O)O[C@H](Cc2ccc(N3CCOCC3)cc2)C(=O)N(C)[C@@H](CC(C)C)C(=O)O[C@H](C)C(=O)N1C [emodepside, reference compound] | 0.03 | – | – | – | – | – | 61,000 MF/mL | 8,300 MF/mL | 4,500 MF/mL | 8,800 MF/mL | 13,000 MF/mL | 13,000 MF/mL | 86 | 93 | 86 | 79 | 79 | minimal effective concentration ([4]; Dirofilaria immitis, 72 h, read-out: DiL4 Minimum Effective Dose (MED), approximately 72 hours incubation, L4 larvae assessed for survival or paralysis): 0.03 µM; adverse effects / clinical observations [6]: all treated dogs exhibited adverse effects consistent with dead or dying circulating microfilariae; average MF counts at 2 hours post-dose ([3]; heartworm positive dogs, 1 mg/kg (po), 61,000 MF/mL of blood pre-dose): 8,300 MF/mL of blood; decrease of average MF counts at 2 hours post-dose ([3]; heartworm positive dogs, 1 mg/kg (po), versus pre-dose): ~86% |
